US20250026733A1, “DEUTERATED ANALOGS OF PYROLE INHIBITORS OF ERK, SYNTHESIS THEREOF AND INTERMEDIATES THERETO” (BIOMED VALLEY DISCOVERIES, INC., priority 2022, published 2025)
Like-named read-outs stand apart in the source and are kept apart here.

Experiments:
CYP1A2 = target: T1, CYP1A2 (Homo sapiens, UniProt P05177); assay: In-vitro CYP inhibition study, CYP1A2; type: in vitro ADME; details: human liver microsomes, substrate Phenacetin (90 μM)
T1 construct: from tissue; host or cells: human liver microsomes, mixed-gender pool of 200
T1 sequence (P05177 1-516): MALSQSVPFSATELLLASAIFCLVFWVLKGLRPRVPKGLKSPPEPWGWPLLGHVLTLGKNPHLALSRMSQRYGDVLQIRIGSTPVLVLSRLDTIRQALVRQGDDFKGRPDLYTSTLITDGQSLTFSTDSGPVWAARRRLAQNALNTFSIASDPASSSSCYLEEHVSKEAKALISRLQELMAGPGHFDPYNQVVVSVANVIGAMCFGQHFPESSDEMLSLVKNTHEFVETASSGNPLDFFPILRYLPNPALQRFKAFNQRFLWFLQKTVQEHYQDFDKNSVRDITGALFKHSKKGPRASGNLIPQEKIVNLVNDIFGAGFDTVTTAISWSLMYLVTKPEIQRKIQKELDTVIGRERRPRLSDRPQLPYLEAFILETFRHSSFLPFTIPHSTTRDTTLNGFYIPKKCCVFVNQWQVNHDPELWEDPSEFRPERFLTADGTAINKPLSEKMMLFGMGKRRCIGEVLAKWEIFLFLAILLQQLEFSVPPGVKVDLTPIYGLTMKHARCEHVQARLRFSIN
Description: (§1) Incubations were conducted using a cocktail of seven prototypical CYP substrates to ascertain the potential of each test article to inhibit the metabolism of concomitantly administered drugs. A mixed-gender pool of 200 human liver microsomal samples was used for this study. Incubations were conducted at approximately 37° C. in 200 μL incubation mixtures (pH 7.4) containing water, potassium phosphate buffer (50 mM), MgCl2 (3 mM), EDTA (1 mM), an NADPH regenerating system (NADP [1 mM], glucose 6 phosphate [5 mM], glucose 6 phosphate dehydrogenase [1 Unit/mL]), and probe substrate (i.e., a seven substrate cocktail) at the final concentrations indicated in Table 9. Reactions were initiated by the addition of NADPH-regenerating system and were automatically terminated at approximately 5 minutes by the addition of internal standard mixed in stop reagent, acetonitrile. The samples were centrifuged at 920×g for 10 minutes at 10° C. The supernatant fractions were analyzed by LC-MS/MS. To examine its ability to act as a time-dependent inhibitor of CYP enzymes, each test article (at the same concentrations used to evaluate direct inhibition, (i.e. 0, 0.02, 0.06, 0.2, 0.6, 2, 6, 20 μM) was pre-incubated at 37±2° C. with NADPH-fortified human liver microsomes for approximately 30 minutes. The pre-incubations were initiated by the addition of NADPH-regenerating system. After 30 min, probe substrate incubations were initiated by the addition of probe substrate cocktail. Incubations were terminated and samples were analyzed by LC-MS/MS. When inhibition was observed, the data were processed with a LIMS for the determination of IC50 values by utilizing the Levenberg-Marquardt algorithm to perform non-linear regression fitting of the data to the following 4-parameter sigmoidal-logistic IC50 equation:
(§2) As percent of control values are utilized, the minimum value (Min) is set to zero and the maximum value (Max) is set to 100 (or other values, as appropriate). The LIMS calculates an IC50 value only when it lies within the concentration range of the inhibitor studied. Therefore, when an IC50 value falls outside the concentration range studied, the IC50 values are reported to be greater than the highest concentration of the test article evaluated.

CYP2C19 = target: T2, CYP2C19 (Homo sapiens, UniProt P33261); assay: In-vitro CYP inhibition study, CYP2C19; type: in vitro ADME; details: human liver microsomes, substrate S-Mephenytoin (60 μM)
T2 construct: from tissue; host or cells: human liver microsomes, mixed-gender pool of 200
Description: as §1, §2

CYP2C8 = target: T3, CYP2C8 (Homo sapiens, UniProt P10632); assay: In-vitro CYP inhibition study, CYP2C8; type: in vitro ADME; details: human liver microsomes, substrate Paclitaxel (5 μM)
T3 construct: from tissue; host or cells: human liver microsomes, mixed-gender pool of 200
T3 sequence (P10632 1-490): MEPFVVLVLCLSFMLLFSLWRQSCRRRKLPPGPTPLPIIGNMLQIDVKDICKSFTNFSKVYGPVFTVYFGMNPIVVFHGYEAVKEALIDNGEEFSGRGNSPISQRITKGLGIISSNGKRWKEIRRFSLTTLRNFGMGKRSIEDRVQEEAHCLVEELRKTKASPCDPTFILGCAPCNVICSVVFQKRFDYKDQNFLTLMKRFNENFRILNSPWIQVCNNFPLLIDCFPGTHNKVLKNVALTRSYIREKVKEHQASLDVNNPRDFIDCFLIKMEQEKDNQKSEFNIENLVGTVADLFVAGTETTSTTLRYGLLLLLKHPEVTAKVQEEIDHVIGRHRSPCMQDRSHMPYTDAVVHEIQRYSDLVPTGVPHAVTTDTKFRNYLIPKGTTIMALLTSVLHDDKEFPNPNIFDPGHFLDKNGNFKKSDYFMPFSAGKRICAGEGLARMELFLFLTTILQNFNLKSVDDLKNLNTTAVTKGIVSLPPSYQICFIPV
Description: as §1, §2

CYP2D6 = target: T4, CYP2D6 (Homo sapiens, UniProt P10635); assay: In-vitro CYP inhibition study, CYP2D6; type: in vitro ADME; details: human liver microsomes, substrate Dextramethorphan (10 μM)
T4 construct: from tissue; host or cells: human liver microsomes, mixed-gender pool of 200
Description: as §1, §2

CYP3A4/5 = assay: In-vitro CYP inhibition study, CYP3A4/5; type: in vitro ADME; details: both sexes, human, human liver microsomes, pH 7.4, probe Midazolam (3 μM), substrate Midazolam (3 μM)
Description: as §1, §2

CYP1A2 mRNA expression = details: human, hepatocytes, 24 h
Description: (§3) A single preparation of characterized cryopreserved human hepatocytes isolated from non-transplantable human livers was treated in this study. Triplicate wells for each of the cultures were treated in 48-well plates with supplemented MCM (37±2° C.) containing 0.1% v/v DMSO (solvent control), one of three concentrations of each test article (1, 10 and 20 μM) or positive control CYP enzyme inducers omeprazole (50 μM), phenobarbital (1000 μM) or rifampin (20 μM). The cultures were incubated in a humidified culture chamber (37±2° C. at 95% relative humidity, 95/5% air/CO2). Approximately 24 h after treatment, hepatocytes were lysed in Buffer RLT reagent containing β-mercaptoethanol (100:1). The medium was aspirated, and Buffer RLT was added to each well. The cell lysates were prepared by repeated pipetting and shaking. Total RNA was isolated using the RNeasy Mini Kit. RNA quality and concentration were determined by measuring absorbance at 260 and 280 nm on a plate reader. Single-stranded cDNA was prepared from RNA with the RT Master Mix. The RT Master Mix comprises 10×RT buffer, 25× deoxyNTPs, 10× Random primers, RNase Inhibitor (20 U/μL), MultiScribe reverse transcriptase (50 U/μL) and RNase-free water. The RT Master Mix was added to each RNA sample to complete the components of the reaction. No template controls (NTCs) were included in the analysis. For the NTC reactions, RNase-free water was added in place of the RNA sample. The prepared cDNA samples were stored at −20±5° C. following analysis by qRT-PCR. Each PCR was performed in quadruplicate. A Primer Mix was prepared for each Gene Expression assay. A typical Primer Mix contained TaqMan Fast Advanced Master Mix (1×), Gene Expression Assay (1×, 900 nM forward and reverse primers) and RNase-free water. The Reaction Mix was prepared by adding the Primer Mix to cDNA. A percentage of samples (no less than 10%) included NAC (no amplification control) samples. […] Reactions were analyzed on a PCR sequence detection system. The relative quantity of the target cDNA compared with that of the control cDNA (GAPDH) was determined by the ΔΔCt method. Relative quantitation measures the change in mRNA expression in a test sample relative to that in a control sample (e.g., DMSO). This method assumes that the efficiency of the target amplification and the efficiency of the endogenous control amplification are approximately equal.

CYP2B6 mRNA expression = details: human, hepatocytes, 24 h
Description: as §3

T4 sequence (P10635 whole entry): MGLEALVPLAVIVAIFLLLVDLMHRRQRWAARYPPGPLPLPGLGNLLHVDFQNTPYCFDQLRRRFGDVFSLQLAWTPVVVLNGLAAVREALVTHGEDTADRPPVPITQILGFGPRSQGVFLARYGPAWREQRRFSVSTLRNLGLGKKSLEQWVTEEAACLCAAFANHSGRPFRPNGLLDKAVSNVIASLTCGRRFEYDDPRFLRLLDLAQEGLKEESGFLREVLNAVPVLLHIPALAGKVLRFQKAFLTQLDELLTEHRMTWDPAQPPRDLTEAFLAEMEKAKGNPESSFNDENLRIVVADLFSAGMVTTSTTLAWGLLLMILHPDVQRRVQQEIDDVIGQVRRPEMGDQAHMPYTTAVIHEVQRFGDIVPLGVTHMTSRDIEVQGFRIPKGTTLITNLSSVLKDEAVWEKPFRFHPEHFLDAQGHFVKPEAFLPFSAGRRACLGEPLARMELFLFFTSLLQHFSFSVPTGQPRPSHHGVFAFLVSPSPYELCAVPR
T2 sequence (P33261 whole entry): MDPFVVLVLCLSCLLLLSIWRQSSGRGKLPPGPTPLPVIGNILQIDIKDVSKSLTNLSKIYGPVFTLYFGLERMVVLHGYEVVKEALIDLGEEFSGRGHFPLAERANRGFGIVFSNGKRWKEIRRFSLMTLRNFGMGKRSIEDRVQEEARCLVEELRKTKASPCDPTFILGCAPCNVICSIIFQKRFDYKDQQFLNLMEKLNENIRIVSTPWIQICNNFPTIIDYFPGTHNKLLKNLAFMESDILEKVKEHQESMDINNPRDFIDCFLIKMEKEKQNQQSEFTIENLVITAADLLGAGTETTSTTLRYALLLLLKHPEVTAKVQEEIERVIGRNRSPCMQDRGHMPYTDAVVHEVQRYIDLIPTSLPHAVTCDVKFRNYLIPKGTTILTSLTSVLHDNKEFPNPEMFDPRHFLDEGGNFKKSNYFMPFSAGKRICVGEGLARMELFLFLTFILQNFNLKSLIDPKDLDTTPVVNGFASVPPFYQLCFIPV

Row | IC50 (CYP1A2; preincubation 0 min) [µM] | IC50 (CYP1A2; preincubation 30 min) [µM] | IC50 (CYP2C19; preincubation 0 min) [µM] | IC50 (CYP2C19; preincubation 30 min) [µM] | IC50 (CYP2C8; preincubation 0 min) [µM] | IC50 (CYP2C8; preincubation 30 min) [µM] | IC50 (CYP2D6; preincubation 0 min) [µM] | IC50 (CYP2D6; preincubation 30 min) [µM] | IC50 at 5 min (CYP3A4/5; preincubation 0 min) [µM] | IC50 at 5 min (CYP3A4/5; preincubation 30 min) [µM] | Fold Change in mRNA Expression of CYP1A2 (CYP1A2 mRNA expression; 1 μM) [fold] | Fold Change in mRNA Expression of CYP1A2 (CYP1A2 mRNA expression; 10 μM) [fold] | Fold Change in mRNA Expression of CYP2B6 (CYP2B6 mRNA expression; 1 μM) [fold] | Fold Change in mRNA Expression of CYP2B6 (CYP2B6 mRNA expression; 10 μM) [fold] | IC50 at 5 min (CYP2D6; both sexes, human, pH 7.4, probe Dextramethorphan (10 μM), preincubation 0 min) [µM] | Fold Change in mRNA Expression of CYP1A2 (CYP1A2 mRNA expression; 20 μM) [fold] | SMILES
1 | > 20 | 17 | 9.6 | 11 | 9.6 | 11 | > 20 | 19 | > 20 | 14 | 3.02 | 5.94 | 1.36 | 1.90 |  |  | [2H]C([2H])([2H])C([2H])(Nc1cc(-c2c[nH]c(C(=O)N[C@H](CO)c3cccc(Cl)c3)c2)c(Cl)cn1)C([2H])([2H])[2H] [Formula 18, 4-(5-chloro-2-((propan-2-yl-d7)amino)pyridin-4-yl)-N-(1-(3-chlorophenyl)-2-hydroxyethyl)-1H-pyrrole-2-carboxamide]
2 | > 20 | 19 | 10 | 12 | 10 | 12 |  | > 20 | > 20 | 13 | 3.57 |  | 1.47 | 2.10 | 20 | 9.52 | [2H]C([2H])([2H])C(Nc1cc(-c2c[nH]c(C(=O)N[C@H](CO)c3cccc(Cl)c3)c2)c(Cl)cn1)C([2H])([2H])[2H] [Formula 19, 4-(5-chloro-2-((propan-2-yl-1,1,1,3,3,3-d6)amino)pyridin-4-yl)-N-(1-(3-chiorophenyl)-2-hydroxyethyl)-1H-pyrrole-2-carboxamide]
3 | > 20 | > 20 | 19 | 19 | 19 | 19 | > 20 | > 20 | > 20 | 17 |  |  | 1.08 | 2.04 |  | 4.00 | Cl.[2H]C(C)(C)Nc1cc(-c2c[nH]c(C(=O)N[C@H](CO)c3cccc(Cl)c3)c2)c(Cl)cn1 [Formula 21A]
4 | > 20 | 13 | 8.5 | 9.2 | 8.5 | 9.2 | > 20 | 18 | > 20 | 14 | 3.73 |  | 1.25 | 1.99 |  | 6.42 | CC(C)Nc1cc(-c2c[nH]c(C(=O)N[C@H](CO)c3cccc(Cl)c3)c2)c(Cl)cn1 [Ulixertinib, reference compound]
